Values of other authors, collected in PubChem BioAssay AID1259409 (Chemical Carcinogenesis Research Information System (CCRIS), 2018).

System: rodent chemically induced tumor inhibition, incidence and multiplicity
Assay: CCRIS tumor inhibitor studies
Details: Route [Inhibitor]: ORAL, Species: RAT

C[C@]12CC[C@H](O)CC1=CC[C@@H]1[C@@H]2CC[C@]2(C)C(=O)CC[C@@H]12
tumour outcome (control, treated, inhibition, significance) (Carcinogen: CYPROTERONE ACETATE [427-51-0], TESTOSTERONE PROPIONATE [57-85-2], N-METHYL-N-NITROSOUREA [684-93-4], Carcinogen: CYPROTERONE ACETATE [427-51-0], TESTOSTERONE PROPIONATE [57-85-2], N-METHYL-N-NITROSOUREA [684-93-4], Dose [Inhibitor]: 1000 MG/KG IN DIET FOR 13 WK BEGINNING 1 WK PRIOR TO MNU DOSE (STUDY DURATION: 14 MONTHS), Strain/Sex: WISTAR-UNILEVER/MALE, Target Tissue: Type of Lesion: PROSTATE AND SEMINAL VESICLE: ADENOCARCINOMA OR CARCINOSARCOMA, Dose [Carcinogen]: 50 MG/KB BW CA BY GAVAGE 1X/D FOR 21 D, 100 MG/KG BW TP SC 1X/D FOR 3 D BEGINNING 1 D POST LAST CA DOSE, 50 MG/KG BW MNU, Dose [Carcinogen]: 50 MG/KB BW CA BY GAVAGE 1X/D FOR 21 D, 100 MG/KG BW TP SC 1X/D FOR 3 D BEGINNING 1 D POST LAST CA DOSE, 50 MG/KG BW MNU, Promoter: TESTOSTERONE (CRYSTALLINE)): 27/32 (84%), 27/34 (79%), 6%, not significant | tumour outcome (control, treated, inhibition, significance) (Carcinogen: CYPROTERONE ACETATE [427-51-0], TESTOSTERONE PROPIONATE [57-85-2], N-METHYL-N-NITROSOUREA [684-93-4], Carcinogen: CYPROTERONE ACETATE [427-51-0], TESTOSTERONE PROPIONATE [57-85-2], N-METHYL-N-NITROSOUREA [684-93-4], Dose [Inhibitor]: 2000 MG/KG IN DIET FOR 13 WK BEGINNING 1 WK PRIOR TO MNU DOSE (STUDY DURATION: 14 MONTHS), Strain/Sex: WISTAR-UNILEVER/MALE, Target Tissue: Type of Lesion: PROSTATE AND SEMINAL VESICLE: ADENOCARCINOMA OR CARCINOSARCOMA, Dose [Carcinogen]: 50 MG/KB BW CA BY GAVAGE 1X/D FOR 21 D, 100 MG/KG BW TP SC 1X/D FOR 3 D BEGINNING 1 D POST LAST CA DOSE, 30 MG/KG BW MNU, Dose [Carcinogen]: 50 MG/KB BW CA BY GAVAGE 1X/D FOR 21 D, 100 MG/KG BW TP SC 1X/D FOR 3 D BEGINNING 1 D POST LAST CA DOSE, 30 MG/KG BW MNU, Promoter: TESTOSTERONE (CRYSTALLINE)): 24/30 (80%), 14/29 (48%), 40%, p<0.05 | tumour outcome (control, treated, inhibition, significance) (Carcinogen: CYPROTERONE ACETATE [427-51-0], TESTOSTERONE PROPIONATE [57-85-2], N-METHYL-N-NITROSOUREA [684-93-4], Carcinogen: CYPROTERONE ACETATE [427-51-0], TESTOSTERONE PROPIONATE [57-85-2], N-METHYL-N-NITROSOUREA [684-93-4], Dose [Inhibitor]: 2000 MG/KG IN DIET FOR 13 WK BEGINNING 1 WK PRIOR TO MNU DOSE (STUDY DURATION: 14 MONTHS), Strain/Sex: WISTAR-UNILEVER/MALE, Target Tissue: Type of Lesion: PROSTATE AND SEMINAL VESICLE: ADENOCARCINOMA OR CARCINOSARCOMA, Dose [Carcinogen]: 50 MG/KB BW CA BY GAVAGE 1X/D FOR 21 D, 100 MG/KG BW TP SC 1X/D FOR 3 D BEGINNING 1 D POST LAST CA DOSE, 50 MG/KG BW MNU, Dose [Carcinogen]: 50 MG/KB BW CA BY GAVAGE 1X/D FOR 21 D, 100 MG/KG BW TP SC 1X/D FOR 3 D BEGINNING 1 D POST LAST CA DOSE, 50 MG/KG BW MNU, Promoter: TESTOSTERONE (CRYSTALLINE)): 27/32 (84%), 22/32 (69%), 18%, not significant | tumour outcome (control, treated, inhibition, significance) (Carcinogen: CYPROTERONE ACETATE [427-51-0], TESTOSTERONE PROPIONATE [57-85-2], N-METHYL-N-NITROSOUREA [684-93-4], Carcinogen: CYPROTERONE ACETATE [427-51-0], TESTOSTERONE PROPIONATE [57-85-2], N-METHYL-N-NITROSOUREA [684-93-4], Dose [Inhibitor]: 2000 MG/KG IN DIET FOR 13 WK BEGINNING 20 WK POST MNU DOSE (STUDY DURATION: 14 MONTHS), Strain/Sex: WISTAR-UNILEVER/MALE, Target Tissue: Type of Lesion: PROSTATE AND SEMINAL VESICLE: ADENOCARCINOMA OR CARCINOSARCOMA, Dose [Carcinogen]: 50 MG/KB BW CA BY GAVAGE 1X/D FOR 21 D, 100 MG/KG BW TP SC 1X/D FOR 3 D BEGINNING 1 D POST LAST CA DOSE, 30 MG/KG BW MNU, Dose [Carcinogen]: 50 MG/KB BW CA BY GAVAGE 1X/D FOR 21 D, 100 MG/KG BW TP SC 1X/D FOR 3 D BEGINNING 1 D POST LAST CA DOSE, 30 MG/KG BW MNU, Promoter: TESTOSTERONE (CRYSTALLINE)): 24/30 (80%), 15/30 (50%), 38%, p<0.05 | tumour outcome (control, treated, inhibition, significance) (Carcinogen: CYPROTERONE ACETATE [427-51-0], TESTOSTERONE PROPIONATE [57-85-2], N-METHYL-N-NITROSOUREA [684-93-4], Carcinogen: CYPROTERONE ACETATE [427-51-0], TESTOSTERONE PROPIONATE [57-85-2], N-METHYL-N-NITROSOUREA [684-93-4], Dose [Inhibitor]: 2000 MG/KG IN DIET FOR 13 WK BEGINNING 40WK POST MNU DOSE (STUDY DURATION: 14 MONTHS), Strain/Sex: WISTAR-UNILEVER/MALE, Target Tissue: Type of Lesion: PROSTATE AND SEMINAL VESICLE: ADENOCARCINOMA OR CARCINOSARCOMA, Dose [Carcinogen]: 50 MG/KB BW CA BY GAVAGE 1X/D FOR 21 D, 100 MG/KG BW TP SC 1X/D FOR 3 D BEGINNING 1 D POST LAST CA DOSE, 30 MG/KG BW MNU, Dose [Carcinogen]: 50 MG/KB BW CA BY GAVAGE 1X/D FOR 21 D, 100 MG/KG BW TP SC 1X/D FOR 3 D BEGINNING 1 D POST LAST CA DOSE, 30 MG/KG BW MNU, Promoter: TESTOSTERONE (CRYSTALLINE)): 24/30 (80%), 18/30 (60%), 25%, not significant | tumour outcome (control, treated, inhibition, significance) (Carcinogen: DIETHYLNITROSAMINE, 55-18-5, ACETYLAMINOFLUORENE, 53-96-3, Carcinogen: DIETHYLNITROSAMINE, 55-18-5, ACETYLAMINOFLUORENE, 53-96-3, Dose [Inhibitor]: 0, 0.6% IN DIET FOR A MAXIMUM OF 15 WK BEGINNING 15 WK POST INITIATION (STUDY DURATION: 56 WK), Strain/Sex: F344/MALE, Target Tissue: Type of Lesion: LIVER: CARCINOMA, Dose [Carcinogen]: 150 MG/KG DEN ONCE THEN 2 WK LATER 0.02% AAF IN DIET FOR 15 D WITH A PARTIAL HEPATECTOMY MIDWAY THROUGH TREATMENT, Promoter: NONE USED): 8/8 (100%), 1/4 (25%), 75%, not calculated | tumour outcome (control, treated, inhibition, significance) (Carcinogen: DIETHYLNITROSAMINE, 55-18-5, N-METHYL-N-NITROSOUREA, 684-93-5, N-BUTYL-N-(4-HYDROXYBUTYL)NITROSAMINE, 3817-11-6, 1,2-DIM, Carcinogen: DIETHYLNITROSAMINE, 55-18-5, N-METHYL-N-NITROSOUREA, 684-93-5, N-BUTYL-N-(4-HYDROXYBUTYL)NITROSAMINE, 3817-11-6, 1,2-DIM, Dose [Inhibitor]: 0, 0.3% IN DIET FOR 23 WK BEGINNING 1 WK POST CARCINOGEN TREATMENT (STUDY DURATION: 28 WK), Strain/Sex: F344/MALE, Target Tissue: Type of Lesion: LARGE INTESTINE: ADENOMA, Dose [Carcinogen]: 100 MG/KG BW DEN ONCE, 20 MG/KG BW MNU ONCE ON DAYS 6,9, AND 12, 0.05% BBN IN DRINKING WATER FOR FIRST TWO WK, 40 MG/KG, Dose [Carcinogen]: 100 MG/KG BW DEN ONCE, 20 MG/KG BW MNU ONCE ON DAYS 6,9, AND 12, 0.05% BBN IN DRINKING WATER FOR FIRST TWO WK, 40 MG/KG, Promoter: NONE USED): 3/20 (15%), 4/20 (20%), -33%, not significant
